This is an account of results in patent publication US9321756B2, “Azole compounds as PIM inhibitors” (priority 2011, dated 2016).

Assay [1] has as its system Pim-1 stably transfected U2OS human osteogenic sarcoma line. As to the kind of experiment: Pim cell assay U2OS (phospho-BAD normalized against total BAD), Pim-1 transfected. The assay is classed as cell-based. The protocol: (§1) The cell lines used in the assay were generated by the stable transfection of either Pim-1 or Pim-2 into the U2OS human osteogenic sarcoma line. The assay for determination of the Pim activity in the engineered U2OS cell lines measures levels of phospho-BAD normalized against total BAD protein levels. It was conducted as follows:
(§2) The adherent cells were dissociated from the flasks using non-enzymatic cell dissociation solution (Sigma #C5914). […] The cells were then incubated overnight at 37° C., 5% CO2.
(§3) In addition to the 10-point dosing curve of the test compound, DMSO alone was run as the high control.
(§4) This dilution in DMSO was then diluted again into cell growth medium. Aliquots (12 μL) of the compound diluted in growth medium were then transferred to the appropriate wells of the 96-well plates containing cells to a final DMSO concentration of 0.3%. The cell plates were then incubated with compound for 29 min at 37° C., 5% CO2.
(§5) The cell plates containing lysis buffer were then immediately stored at −70° C.
(§6) These prepared lysates were then assayed for phospho and total BAD according to the manufacturer's protocols (Meso Scale Diagnostics, Cat#K15103C-3 & #K15103D-3). The plates were read on the MSD Sector Imager 6000, and results were calculated according to the assay protocols ((% Phosphoprotein=((2×Phospho signal)/(Phospho signal+Total signal))×100)).

Assay [2] concerns the target full length recombinant Pim-2 (Homo sapiens (Human), UniProt Q9P1W9). As to the kind of experiment: Pim enzyme assay (HTRF, phosphorylation of biotinylated-BAD (S112) peptide), Pim-2. The assay is classed as biochemical. The conditions noted are these: read-out: Pim2_IC50. In general terms: In TR-FRET formats the signal depends on donor and acceptor labels being close together.

The target of assay [3] is full length recombinant Pim-1 (Homo sapiens (Human), UniProt P11309). As to the kind of experiment: Pim enzyme assay (HTRF, phosphorylation of biotinylated-BAD (S112) peptide), Pim-1. Format: biochemical. Conditions: Pim-1 enzyme assay; read-out: Pim_1_IC50.
Assay [4] concerns Pim-2 stably transfected U2OS human osteogenic sarcoma line. Kind of assay: Pim cell assay U2OS (phospho-BAD normalized against total BAD), Pim-2 transfected. The assay is classed as cell-based. The conditions noted are these: read-out: U2OS Pim2_Cell_IC50. The protocol:
as §1, §2, §3, §4, §5, §6

For assay [5], the target named is full length recombinant Pim-3 (Homo sapiens (Human), UniProt Q86V86). As to the kind of experiment: Pim enzyme assay (HTRF, phosphorylation of biotinylated-BAD (S112) peptide), Pim-3. The assay is classed as biochemical. Conditions: read-out: Pim3 IC50. An outline of the steps:
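IC50 values were fitted with a 4-parameter logistic model to percent-of-control HTRF signal (Eu anti-phospho-BAD S112 antibody/streptavidin-APC). Reactions used full-length Pim-3 and biotin-BAD (S112) peptide, ran 1 h 30 min at RT (22 °C) in Hepes pH 7.0 buffer with BSA and DTT, and were stopped by 3 mM EDTA.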

Where [6] appears, read: Homo sapiens, U2OS, read-out: U2OS Pim1_Cell_IC50.
The mark [7] stands for this setting: Homo sapiens, U2OS cells, Pim-2 transfected.
[8] abbreviates: Homo sapiens, U2OS, read-out: U2OS Pim1_Cell_IC50, U2OS cells, Pim-1 transfected.

Like-named read-outs stand apart in the source and are kept apart here. A value given as a limit tells only on which side of the number the result lay.

full length recombinant Pim-1, sequence (P11309 whole entry): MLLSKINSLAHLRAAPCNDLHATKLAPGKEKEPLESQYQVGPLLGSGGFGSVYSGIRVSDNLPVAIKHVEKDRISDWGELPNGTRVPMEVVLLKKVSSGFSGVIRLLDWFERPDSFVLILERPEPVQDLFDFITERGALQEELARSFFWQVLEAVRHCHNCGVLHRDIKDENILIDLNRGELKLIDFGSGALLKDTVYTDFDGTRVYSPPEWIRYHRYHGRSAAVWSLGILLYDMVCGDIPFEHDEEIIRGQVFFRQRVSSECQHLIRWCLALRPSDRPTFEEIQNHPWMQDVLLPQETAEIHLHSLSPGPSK
full length recombinant Pim-2, sequence (Q9P1W9 whole entry): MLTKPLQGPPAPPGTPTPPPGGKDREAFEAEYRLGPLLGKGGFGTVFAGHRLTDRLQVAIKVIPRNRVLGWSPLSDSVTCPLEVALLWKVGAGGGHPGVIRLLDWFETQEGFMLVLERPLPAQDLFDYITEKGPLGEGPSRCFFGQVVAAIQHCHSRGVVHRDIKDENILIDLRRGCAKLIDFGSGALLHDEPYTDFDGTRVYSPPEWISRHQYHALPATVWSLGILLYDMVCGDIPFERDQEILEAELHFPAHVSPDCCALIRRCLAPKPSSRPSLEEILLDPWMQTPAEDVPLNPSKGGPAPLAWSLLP

In the case of `CC(C)Oc1cccc(-c2c[nH]c3ccc(-c4nnc(N)s4)cc23)n1` [Example 157, 5-(3-(6-(1-methylethoxy)-2-pyridinyl)-1H-indol-5-yl)-1,3,4-thiadiazol-2-amine], the IC50 in assay [1] (setting [6]) was found to be 106 nM; in assay [2] (Pim-2 enzyme assay), 10.1 nM; in assay [3], 7.77 nM; in assay [4] (setting [7]) it was 2220 nM.

With `CNc1nnc(-c2ccc3[nH]cc(-c4cccc(OC5CCC5)n4)c3c2)s1` [Example 232, 5-(3-(6-(cyclobutyloxy)-2-pyridinyl)-1H-indol-5-yl)-N-methyl-1,3,4-thiadiazol-2-amine], the IC50 in assay [1] (setting [6]) was 1720 nM; in assay [2] (Pim-2 enzyme assay), 104 nM; in assay [3], 57 nM; in assay [4] (setting [7]), greater than 31600 nM.

As for `c1cc(C2CC2)nc(-c2c[nH]c3ccc(-c4nnc(C5CC5)o4)cc23)n1` [Example 43, 2-cyclopropyl-5-(3-(4-cyclopropylpyrimidin-2-yl)-1H-indol-5-yl)-1,3,4-oxadiazole], the IC50 in assay [1] (setting [6]) came to 247 nM; in assay [2] (Pim-2 enzyme assay), 4.32 nM; in assay [3], 7.58 nM; in assay [4] (setting [7]), 3390 nM.

Turning to `Nc1nnc(-c2ccc3[nH]cc(-c4cncc(-c5ccc(Cl)cc5)n4)c3c2)o1` [Example 114, 5-(3-(6-(4-chlorophenyl)-2-pyrazinyl)-1H-indol-5-yl)-1,3,4-oxadiazol-2-amine], the IC50 is 137 nM in assay [1] (setting [8]), 25.1 nM in assay [2] (Pim-2 enzyme assay), 12.6 nM in assay [3] and greater than 31600 nM in assay [4] (setting [7]).

Take `c1cc2[nH]cc(-c3cncc(C4CC4)n3)c2cc1-c1nnc(C2CC2)o1` [Example 44, 2-Cyclopropyl-5-(3-(6-cyclopropylpyrazin-2-yl)-1H-indol-5-yl)-1,3,4-oxadiazole]: the IC50 was 628 nM in assay [1] (setting [6]), 26 nM in assay [2] (Pim-2 enzyme assay), 9.92 nM in assay [3] and greater than 31600 nM in assay [4] (setting [7]).

With `CC(C)Nc1cncc(-c2c[nH]c3ccc(-c4nc(N)ns4)cc23)n1` [Example 64, 5-(3-(6-(isopropylamino)pyrazin-2-yl)-1H-indol-5-yl)-1,2,4-thiadiazol-3-amine], the IC50 is 200 nM in assay [1] (setting [6]), 58.7 nM in assay [2] (Pim-2 enzyme assay), 4.26 nM in assay [3] and greater than 10000 nM in assay [4] (setting [7]).

Take `CN1CCCC(Nc2ccnc(-c3c[nH]c4ccc(-c5nnc(N)o5)cc34)n2)C1` (stereo not drawn) [Example 111, 2-(5-(5-amino-1,3,4-oxadiazol-2-yl)-1H-indol-3-yl)-N-(1-methyl-3-piperidinyl)-4-pyrimidinamine]: the IC50 is greater than 31600 nM in assay [1] (setting [6]), 6.59 nM in assay [2] (Pim-2 enzyme assay), 18.6 nM in assay [3] and greater than 31600 nM in assay [4] (setting [7]).

In the case of `COC[C@H]1CCCN1c1ccnc(-c2c[nH]c3ccc(-c4nnc(N)o4)cc23)n1` [Example 113, 5-(3-(4-((2R)-2-(methoxymethyl)-1-pyrrolidinyl)-2-pyrimidinyl)-1H-indol-5-yl)-1,3,4-oxadiazol-2-amine], the IC50 in assay [1] (setting [6]) was 380 nM; in assay [2] (Pim-2 enzyme assay) it was 25.7 nM; in assay [3], 13.7 nM; in assay [4] (setting [7]) it was greater than 10000 nM.

`CC1COCCN1c1nnc(-c2ccc3[nH]cc(-c4cncc(C5CC5)n4)c3c2)o1` (stereo in doubt) [Example 249, 3-(6-cyclopropyl-2-pyrazinyl)-5-(5-((3R)-3-methyl-4-morpholinyl)-1,3,4-oxadiazol-2-yl)-1H-indole]: the IC50 in assay [1] (read-out: U2OS Pim1_Cell_IC50, U2OS cells, Pim-1 transfected) is 375 nM; in assay [2] (Pim-2 enzyme assay), 48.9 nM; in assay [3], 16.1 nM; in assay [4] (U2OS cells, Pim-2 transfected) it was greater than 31600 nM.

Take `C[C@H]1COCCN1c1nnc(-c2ccc3[nH]cc(-c4cncc(C5CC5)n4)c3c2)o1` [Example 248, 3-(6-cyclopropyl-2-pyrazinyl)-5-(5-((3S)-3-methyl-4-morpholinyl)-1,3,4-oxadiazol-2-yl)-1H-indole]: the IC50 was 192 nM in assay [1] (setting [8]), 20.9 nM in assay [2] (Pim-2 enzyme assay), 13.9 nM in assay [3] and greater than 31600 nM in assay [4] (setting [7]).

Take `Nc1nnc(-c2ccc3[nH]cc(-c4cccc(NC5CCCC5)n4)c3c2)s1` [Example 16, 5-(3-(6-(cyclopentylamino)pyridin-2-yl)-1H-indol-5-yl)-1,3,4-thiadiazol-2-amine 2,2,2-trifluoroacetate]: the IC50 was 21.1 nM in assay [2] and 3090 nM in assay [4] (Homo sapiens, U2OS).

Turning to `c1cc(C2CC2)nc(-c2c[nH]c3ccc(-c4nnc(NC5CC5)o4)cc23)n1` [Example 257, N-cyclopropyl-5-(3-(4-cyclopropyl-2-pyrimidinyl)-1H-indol-5-yl)-1,3,4-oxadiazol-2-amine], the IC50 in assay [1] (setting [6]) came out at 100 nM; in assay [2] (Pim-2 enzyme assay), 1.41 nM; in assay [3], 1.99 nM; in assay [4] (setting [7]), 943 nM.

As for `CC(C)Nc1cncc(-c2c[nH]c3ccc(-c4nnc(N)s4)cc23)n1` [Example 206, 6-(5-(5-amino-1,3,4-thiadiazol-2-yl)-1H-indol-3-yl)-N-(1-methylethyl)-2-pyrazinamine], the IC50 was 1.15 nM in assay [5] (Pim-3 enzyme assay), 9.65 nM in assay [2] (Pim-2 enzyme assay) and 945 nM in assay [4] (setting [7]).

`c1cc2[nH]cc(-c3cncc(C4CC4)n3)c2cc1-c1nnc(N2CCCC2)o1` [Example 37, 2-(3-(6-Cyclopropylpyrazin-2-yl)-1H-indol-5-yl)-5-(pyrrolidin-1-yl)-1,3,4-oxadiazole 2,2,2-trifluoroacetate]: the IC50 is 6.78 nM in assay [5], 237 nM in assay [1] (setting [8]), 80.1 nM in assay [2] and 9.14 nM in assay [3].

As to `Nc1nnc(-c2ccc3[nH]cc(-c4cncc(-c5ccccc5Cl)n4)c3c2)o1` [Example 117, 5-(3-(6-(2-chlorophenyl)-2-pyrazinyl)-1H-indol-5-yl)-1,3,4-oxadiazol-2-amine], the IC50 was found to be 21.8 nM in assay [5] (Pim-3 enzyme assay), 227 nM in assay [1] (setting [8]), 57.3 nM in assay [2] (Pim-2 enzyme assay) and 16.5 nM in assay [3].

In the case of `C[C@@H]1CCCN(c2cccc(-c3c[nH]c4ccc(-c5nnc(N)s5)cc34)n2)C1` (stereo in doubt) [Example 174, 5-(3-(6-(3-methyl-1-piperidinyl)-2-pyridinyl)-1H-indol-5-yl)-1,3,4-thiadiazol-2-amine], the IC50 in assay [5] (Pim-3 enzyme assay) came out at 23.6 nM; in assay [1] (setting [6]), 998 nM; in assay [2] (Pim-2 enzyme assay) it was 159 nM; in assay [3] it was 41 nM.

For `c1cc2[nH]cc(-c3cncc(C4CC4)n3)c2cc1-c1nnc(N2CCOCC2)o1` [Example 245, 3-(6-cyclopropyl-2-pyrazinyl)-5-(5-(4-morpholinyl)-1,3,4-oxadiazol-2-yl)-1H-indole], the IC50 was 217 nM in assay [1] (setting [8]), 20.3 nM in assay [3] and greater than 31600 nM in assay [4] (setting [7]).

With `N[C@H]1CCN(c2nnc(-c3ccc4[nH]cc(-c5ccccc5F)c4c3)s2)C1` (stereo in doubt) [Example 140, 1-(5-(3-(2-fluorophenyl)-1H-indol-5-yl)-1,3,4-thiadiazol-2-yl)-3-pyrrolidinamine], the IC50 in assay [5] (Pim-3 enzyme assay) is 13.4 nM; in assay [1] (setting [6]), 871 nM; in assay [2] (Pim-2 enzyme assay), 244 nM; in assay [3] it was 73.2 nM.

`CC1CCN(c2cccc(-c3c[nH]c4ccc(-c5nnc(N)s5)cc34)n2)CC1` [Example 175, 5-(3-(6-(4-methyl-1-piperidinyl)-2-pyridinyl)-1H-indol-5-yl)-1,3,4-thiadiazol-2-amine]: the IC50 was 17.7 nM in assay [5] (Pim-3 enzyme assay), 682 nM in assay [1] (setting [6]), 117 nM in assay [2] (Pim-2 enzyme assay) and 41.4 nM in assay [3].
